# Test results: ChEMBL document CHEMBL1201862, “PubChem BioAssay data set” (2004)
#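 Cultured in 96-well plates, cells were exposed to test compound for 48 hours across five concentrations. The concentration for 50% growth inhibition is given as GI50.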 Calls of active or inactive are those of the source. No stated cut-off is given here; in the data, active = GI50 up to about 1.1 µM and inactive = higher.
# How the values were obtained:
# Test in all cases: DTP human tumour cell line panel, 48 h
# BT-549 = tested on: BT-549
# NCI-H23 = tested on: NCI-H23
# HOP-92 = tested on: HOP-92
# SW-620 = tested on: SW-620
# SK-MEL-5 = tested on: SK-MEL-5
# HCT-116 = tested on: HCT-116
# Hs-578T = tested on: Hs-578T
# CCRF-CEM = tested on: CCRF-CEM
# UO-31 = tested on: UO-31
# A549 = tested on: A549
# HCT-15 = tested on: HCT-15
# HT-29 = tested on: HT-29
# COLO 205 = tested on: COLO 205
# U-251 = tested on: U-251
# HCC 2998 = tested on: HCC 2998
# CAKI-1 = tested on: CAKI-1
# SF-268 = tested on: SF-268
# EKVX = tested on: EKVX
# RPMI-8226 = tested on: RPMI-8226
# SK-MEL-28 = tested on: SK-MEL-28
# SNB-75 = tested on: SNB-75
# A498 = tested on: A498
# OVCAR-8 = tested on: OVCAR-8
# KM12 = tested on: KM12
# SF-295 = tested on: SF-295
# SR = tested on: SR
# HL-60 = tested on: HL-60
# TK-10 = tested on: TK-10
# 786-0 = tested on: 786-0
# Malme-3M = tested on: Malme-3M
# OVCAR-3 = tested on: OVCAR-3
# MOLT-4 = tested on: MOLT-4
# SF-539 = tested on: SF-539
# M14 = tested on: M14
# HOP-62 = tested on: HOP-62
# OVCAR-4 = tested on: OVCAR-4
# MDA-N = tested on: MDA-N
# NCI-H522 = tested on: NCI-H522
# NCI-H460 = tested on: NCI-H460
# SK-OV-3 = tested on: SK-OV-3
# OVCAR-5 = tested on: OVCAR-5
# UACC-62 = tested on: UACC-62
# SN12C = tested on: SN12C
# RXF 393 = tested on: RXF 393
# SNB-19 = tested on: SNB-19
# PC-3 = tested on: PC-3
# ACHN = tested on: ACHN
# UACC-257 = tested on: UACC-257
# MDA-MB-435 = tested on: MDA-MB-435
# DU-145 = tested on: DU-145
# MCF7 = tested on: MCF7
# IGROV-1 = tested on: IGROV-1
# K562 = tested on: K562
# NCI-H226 = tested on: NCI-H226
# MDA-MB-231 = tested on: MDA-MB-231
# T47D = tested on: T47D
# LOX IMVI = tested on: LOX IMVI
# SK-MEL-2 = tested on: SK-MEL-2
# NCI/ADR-RES = tested on: NCI/ADR-RES
smiles,measurement,setting,value
OCC1NCC(O)C(O)C1O (stereo not drawn),GI50,BT-549,> 100 µM (inactive)
same,GI50,NCI-H23,> 100 µM (inactive)
same,GI50,HOP-92,> 100 µM (inactive)
same,GI50,SW-620,> 100 µM (inactive)
same,GI50,SK-MEL-5,> 100 µM (inactive)
same,GI50,HCT-116,> 100 µM (inactive)
same,GI50,Hs-578T,> 100 µM (inactive)
same,GI50,CCRF-CEM,> 100 µM (inactive)
same,GI50,UO-31,> 100 µM (inactive)
same,GI50,A549,> 100 µM (inactive)
same,GI50,HCT-15,> 100 µM
same,GI50,HT-29,> 100 µM (inactive)
same,GI50,COLO 205,> 100 µM (inactive)
same,GI50,U-251,> 100 µM (inactive)
same,GI50,HCC 2998,> 100 µM (inactive)
same,GI50,CAKI-1,> 100 µM (inactive)
same,GI50,SF-268,> 100 µM (inactive)
same,GI50,EKVX,> 100 µM (inactive)
same,GI50,RPMI-8226,> 100 µM (inactive)
same,GI50,SK-MEL-28,> 100 µM (inactive)
same,GI50,SNB-75,> 100 µM (inactive)
same,GI50,A498,> 100 µM (inactive)
same,GI50,OVCAR-8,> 100 µM (inactive)
same,GI50,KM12,> 100 µM (inactive)
same,GI50,SF-295,> 10 µM (inactive)
same,GI50,SR,> 100 µM (inactive)
same,GI50,HL-60,> 100 µM (inactive)
same,GI50,TK-10,> 100 µM (inactive)
same,GI50,786-0,> 100 µM (inactive)
same,GI50,Malme-3M,22.4 µM (inactive)
same,GI50,OVCAR-3,> 100 µM (inactive)
same,GI50,MOLT-4,> 100 µM (inactive)
same,GI50,SF-539,> 100 µM (inactive)
same,GI50,M14,> 100 µM (inactive)
same,GI50,HOP-62,> 100 µM (inactive)
same,GI50,OVCAR-4,> 100 µM (inactive)
same,GI50,MDA-N,> 100 µM (inactive)
same,GI50,NCI-H522,> 100 µM (inactive)
same,GI50,NCI-H460,> 100 µM (inactive)
same,GI50,SK-OV-3,> 100 µM (inactive)
same,GI50,OVCAR-5,> 100 µM (inactive)
same,GI50,UACC-62,> 100 µM (inactive)
same,GI50,SN12C,> 100 µM (inactive)
same,GI50,RXF 393,> 100 µM (inactive)
same,GI50,SNB-19,> 100 µM (inactive)
same,GI50,PC-3,> 100 µM (inactive)
same,GI50,ACHN,> 100 µM (inactive)
same,GI50,UACC-257,> 100 µM (inactive)
same,GI50,MDA-MB-435,> 100 µM (inactive)
same,GI50,DU-145,> 100 µM (inactive)
same,GI50,MCF7,> 100 µM (inactive)
same,GI50,IGROV-1,> 100 µM (inactive)
CC(=O)NC(Cc1ccccc1)NC(=O)O (stereo not drawn),GI50,BT-549,> 100 µM (inactive)
same,GI50,NCI-H23,> 100 µM (inactive)
same,GI50,HOP-92,> 100 µM (inactive)
same,GI50,SW-620,> 100 µM (inactive)
same,GI50,SK-MEL-5,> 100 µM (inactive)
same,GI50,HCT-116,> 100 µM (inactive)
same,GI50,K562,> 100 µM (inactive)
same,GI50,CCRF-CEM,> 100 µM (inactive)
same,GI50,UO-31,> 100 µM (inactive)
same,GI50,A549,> 100 µM (inactive)
same,GI50,HCT-15,> 100 µM
same,GI50,NCI-H226,> 100 µM (inactive)
same,GI50,HT-29,> 100 µM (inactive)
same,GI50,COLO 205,> 100 µM (inactive)
same,GI50,U-251,> 100 µM (inactive)
same,GI50,HCC 2998,> 100 µM (inactive)
same,GI50,CAKI-1,> 100 µM (inactive)
same,GI50,MDA-MB-231,> 100 µM (inactive)
same,GI50,SF-268,> 100 µM (inactive)
same,GI50,EKVX,> 100 µM (inactive)
same,GI50,RPMI-8226,> 100 µM (inactive)
same,GI50,T47D,> 100 µM (inactive)
same,GI50,SK-MEL-28,> 100 µM (inactive)
same,GI50,SNB-75,> 100 µM (inactive)
same,GI50,A498,> 100 µM (inactive)
same,GI50,OVCAR-8,> 100 µM (inactive)
same,GI50,KM12,> 100 µM (inactive)
same,GI50,SF-295,> 100 µM (inactive)
same,GI50,SR,> 100 µM (inactive)
same,GI50,LOX IMVI,> 100 µM (inactive)
same,GI50,HL-60,> 100 µM (inactive)
same,GI50,TK-10,> 100 µM (inactive)
same,GI50,786-0,> 100 µM (inactive)
same,GI50,Malme-3M,> 100 µM (inactive)
same,GI50,OVCAR-3,> 100 µM (inactive)
same,GI50,MOLT-4,> 100 µM (inactive)
same,GI50,SF-539,> 100 µM (inactive)
same,GI50,M14,> 100 µM (inactive)
same,GI50,HOP-62,> 100 µM (inactive)
same,GI50,OVCAR-4,> 100 µM (inactive)
same,GI50,SK-MEL-2,> 100 µM (inactive)
same,GI50,MDA-N,> 100 µM (inactive)
same,GI50,NCI-H522,> 100 µM (inactive)
same,GI50,NCI/ADR-RES,> 100 µM (inactive)
same,GI50,NCI-H460,> 100 µM (inactive)
same,GI50,SK-OV-3,> 100 µM (inactive)
same,GI50,OVCAR-5,> 100 µM (inactive)
same,GI50,UACC-62,> 100 µM (inactive)
same,GI50,SN12C,> 100 µM (inactive)
same,GI50,RXF 393,> 100 µM (inactive)
same,GI50,SNB-19,> 100 µM (inactive)
same,GI50,PC-3,> 100 µM (inactive)
same,GI50,ACHN,> 100 µM (inactive)
same,GI50,UACC-257,> 100 µM (inactive)
same,GI50,MDA-MB-435,> 100 µM (inactive)
same,GI50,DU-145,> 100 µM (inactive)
same,GI50,MCF7,> 100 µM (inactive)
same,GI50,IGROV-1,> 100 µM (inactive)
CC1(C)O[C@H]2OC(CO[Si](C)(C)C(C)(C)C)C(N=[N+]=[N-])[C@H]2O1 (stereo partly drawn),GI50,BT-549,21.6 µM (inactive)
same,GI50,NCI-H23,19.2 µM (inactive)
same,GI50,HOP-92,23.9 µM (inactive)
same,GI50,SW-620,21.5 µM (inactive)
same,GI50,HCT-116,15.6 µM (inactive)
same,GI50,Hs-578T,23.6 µM (inactive)
same,GI50,K562,13.3 µM (inactive)
same,GI50,CCRF-CEM,16.6 µM (inactive)
same,GI50,UO-31,17.2 µM (inactive)
same,GI50,A549,18.2 µM (inactive)
same,GI50,HCT-15,21.1 µM
same,GI50,NCI-H226,20 µM (inactive)
same,GI50,HT-29,12.5 µM (inactive)
same,GI50,U-251,20.6 µM (inactive)
same,GI50,HCC 2998,17.8 µM (inactive)
same,GI50,CAKI-1,23.8 µM (inactive)
same,GI50,SF-268,20.7 µM (inactive)
same,GI50,EKVX,22.8 µM (inactive)
same,GI50,RPMI-8226,13 µM (inactive)
same,GI50,SK-MEL-28,24.7 µM (inactive)
same,GI50,SNB-75,28.4 µM (inactive)
same,GI50,A498,25 µM (inactive)
same,GI50,OVCAR-8,20.1 µM (inactive)
same,GI50,KM12,18.7 µM (inactive)
same,GI50,SF-295,11.8 µM (inactive)
same,GI50,SR,12.4 µM (inactive)
same,GI50,LOX IMVI,21 µM (inactive)
same,GI50,HL-60,7.31 µM (inactive)
same,GI50,TK-10,19.1 µM (inactive)
same,GI50,786-0,18.2 µM (inactive)
same,GI50,Malme-3M,17.1 µM (inactive)
same,GI50,OVCAR-3,22.7 µM (inactive)
same,GI50,MOLT-4,17 µM (inactive)
same,GI50,SF-539,20 µM (inactive)
same,GI50,M14,19.2 µM (inactive)
same,GI50,HOP-62,19.2 µM (inactive)
same,GI50,OVCAR-4,26.3 µM (inactive)
same,GI50,SK-MEL-2,17.2 µM (inactive)
same,GI50,MDA-N,23.7 µM (inactive)
same,GI50,NCI/ADR-RES,18.1 µM (inactive)
same,GI50,NCI-H460,26.2 µM (inactive)
same,GI50,SK-OV-3,14 µM (inactive)
same,GI50,OVCAR-5,20.5 µM (inactive)
same,GI50,UACC-62,19.1 µM (inactive)
same,GI50,SN12C,20 µM (inactive)
same,GI50,RXF 393,16.6 µM (inactive)
same,GI50,SNB-19,17.7 µM (inactive)
same,GI50,PC-3,20.3 µM (inactive)
same,GI50,ACHN,18.7 µM (inactive)
same,GI50,UACC-257,18 µM (inactive)
same,GI50,MDA-MB-435,25.8 µM (inactive)
same,GI50,MCF7,20.7 µM (inactive)
same,GI50,IGROV-1,3.04 µM (inactive)
